Entries after “also recorded” stand apart in the source; their conditions may differ.
Test system: Bacillus licheniformis

**Q.** With `Nc1n[nH]c(=O)[nH]1` [amine, 5-amino-1,2,4-triazole-3-one] as the compound, how does the “stability of the amine formed in the incubation mixture” value read?
**A.** does not undergo any subsequent transformation; also recorded: stable
